Here are results for 3 molecules from PMC10829540, “Natural transaminase fusions for biocatalysis” (RSC Advances, 2024).

One data set deals with T1, PpKTFusion (Pseudomonas putida, UniProt Q88J67).
T1 construct: gene PP_2782; full-length fusion (N-terminal TAm 1-526, linker 527-562, C-terminal reductase 563-959); N-terminal His6-tag, pET-28a(+), E. coli
T1 sequence (Q88J67 1-959): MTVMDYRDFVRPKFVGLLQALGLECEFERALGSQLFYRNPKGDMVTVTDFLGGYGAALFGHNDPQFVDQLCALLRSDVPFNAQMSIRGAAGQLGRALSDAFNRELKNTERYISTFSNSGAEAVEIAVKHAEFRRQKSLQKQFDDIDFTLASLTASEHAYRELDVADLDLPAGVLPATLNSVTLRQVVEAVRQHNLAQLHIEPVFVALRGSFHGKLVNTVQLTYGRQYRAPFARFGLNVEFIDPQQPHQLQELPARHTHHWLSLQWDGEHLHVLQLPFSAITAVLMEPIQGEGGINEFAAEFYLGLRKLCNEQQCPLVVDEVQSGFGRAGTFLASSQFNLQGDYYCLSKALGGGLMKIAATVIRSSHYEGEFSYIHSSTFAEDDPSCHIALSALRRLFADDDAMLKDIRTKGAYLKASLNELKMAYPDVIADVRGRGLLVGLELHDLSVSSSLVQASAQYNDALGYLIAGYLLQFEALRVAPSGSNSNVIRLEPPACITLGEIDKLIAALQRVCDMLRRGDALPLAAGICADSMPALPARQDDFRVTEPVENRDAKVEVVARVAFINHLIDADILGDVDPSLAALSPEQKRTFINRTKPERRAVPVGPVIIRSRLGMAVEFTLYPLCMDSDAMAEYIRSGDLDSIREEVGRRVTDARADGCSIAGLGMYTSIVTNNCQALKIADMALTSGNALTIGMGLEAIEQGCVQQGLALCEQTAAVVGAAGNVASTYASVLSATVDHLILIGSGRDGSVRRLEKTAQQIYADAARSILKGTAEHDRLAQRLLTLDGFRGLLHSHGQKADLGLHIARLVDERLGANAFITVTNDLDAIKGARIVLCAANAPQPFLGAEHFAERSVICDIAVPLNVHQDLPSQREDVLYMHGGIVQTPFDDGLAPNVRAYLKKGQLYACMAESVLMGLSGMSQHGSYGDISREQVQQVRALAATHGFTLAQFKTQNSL
The data set is described as follows: HPLC conversion of […] to […], non-linear regression to substrate inhibition equation. In kind it is biochemical. To be noted: apparent, amine donor L-glutamate, 1.0 mM PLP, HEPES pH 7.7, 10% DMSO, 30 °C (conditions of Fig. 7F).

For a further data set, the target named is T2, TfFusion (Thermincola carboxydiphila, UniProt A0A0L6W1G2).
T2 construct: gene Tfer_2018; full-length fusion; N-terminal His6-tag, pET-28a(+), E. coli
The data set is described as above. Type of data set: biochemical. The note with it: apparent, amine donor L-glutamate, 1.0 mM PLP, HEPES pH 7.7, 10% DMSO, 50 °C (conditions of Fig. 7F).

Another data set concerns the target T3, PpKTTAm (Pseudomonas putida, UniProt Q88J67).
T3 construct: gene PP_2782; truncated to N-terminal TAm domain (assigned residues 1-526); N-terminal His6-tag, pET-28a(+), E. coli
T3 sequence (Q88J67 1-526): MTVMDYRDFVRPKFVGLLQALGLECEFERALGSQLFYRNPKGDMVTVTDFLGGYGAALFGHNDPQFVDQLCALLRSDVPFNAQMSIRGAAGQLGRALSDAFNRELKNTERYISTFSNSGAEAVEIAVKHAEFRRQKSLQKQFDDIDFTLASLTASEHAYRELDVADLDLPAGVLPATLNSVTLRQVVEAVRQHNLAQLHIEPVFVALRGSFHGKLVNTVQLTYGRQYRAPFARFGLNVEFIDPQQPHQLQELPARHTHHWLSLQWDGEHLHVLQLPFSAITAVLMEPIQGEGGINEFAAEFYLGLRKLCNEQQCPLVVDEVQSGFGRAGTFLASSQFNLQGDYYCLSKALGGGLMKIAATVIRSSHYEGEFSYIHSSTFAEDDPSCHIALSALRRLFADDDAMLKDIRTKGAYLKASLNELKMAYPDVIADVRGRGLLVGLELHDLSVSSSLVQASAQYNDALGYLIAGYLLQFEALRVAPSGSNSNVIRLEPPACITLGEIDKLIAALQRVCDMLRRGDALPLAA
Described as above. To be noted: apparent, amine donor L-glutamate, 1.0 mM PLP, HEPES pH 7.7, 10% DMSO, 30 °C (conditions of Fig. 7F). In kind it is biochemical.

The target of another data set is T4, TfTAm (Thermincola carboxydiphila, UniProt A0A0L6W1G2).
T4 construct: gene Tfer_2018; truncated to N-terminal TAm domain (borders only in ESI); N-terminal His6-tag, pET-28a(+), E. coli
In words: HPLC conversion of […] to […], non-linear regression. Type of data set: biochemical. The note with it: apparent; amine acceptor 3-phenylpropionaldehyde (10 mM), 1.0 mM PLP, HEPES pH 7.7, 10% DMSO, 50 °C (conditions of Fig. 7E); read-out: K ^app m.

Substrate in data set [1]: N[C@@H](CCC(=O)O)C(=O)O
In words: purified protein. In kind it is biochemical, Thermincola carboxydiphila. The note with it: apparent, amine acceptor 3-phenylpropionaldehyde (10 mM), 1.0 mM PLP, HEPES pH 7.7, 10% DMSO, 50 °C (conditions of Fig. 7E).

Substrate in data set [2]: O=CCCc1ccccc1
In words: purified protein. In kind it is biochemical, Thermincola carboxydiphila. The note with it: apparent, amine donor L-glutamate, 1.0 mM PLP, HEPES pH 7.7, 10% DMSO, 50 °C (conditions of Fig. 7F).

Turning to `O=CCCc1ccccc1` [compound 13, 3-phenylpropionaldehyde], the “K ^app i” value at PpKTFusion turned out to be 3.37 µM; on TfFusion it was 52.92 µM; on PpKTTAm, 5.13 µM.
Take `N[C@@H](CCC(=O)O)C(=O)O` [compound 36, L-glutamate]: on TfTAm, the Km amounted to 9.57 mM.

B1: TfFusion (Thermincola carboxydiphila) (protein)
chain: MKFSSLNPTMDKLFECFKLDVAYVKGEGTYLYDQAGNKYLDFIAQYGAVPFGYNPPELVAAAKKYFDLSLPSMVQPSIPVKAVELAEMLLQLAPGEMAQATFCQSGAEAVEVAIKLARSTTGKPKILSTKNSFHGKTMGALSATGRDVYQKPFFTPVPGFEHIPFGDLDMLENKMRTEGKQIAAFLVEPIQGEGGIIVPPEGYLKNAEIICRKYGVLLAVDEIQTGLGRTGELFACDREGVEPDILLLSKALGGGLVPLGVCLSTRQAWNEEFGRLHSSTFANNNFTCAIGLAVLNKLLENGRQLINNAKSAGNYLLKNLEDINRQYPGVIKEIRGRGLMLGLEFNEFDGSESFSMKYLAEQGGFSPLLAGYLLNVHKVRVAPFLNNPMTLRLQPSLTVATVEIDRALHGLERVVKALYYQDHCELYSYIIGKEPGPIRDFRSEKKAVTGSELLPEEKPTEKFAFLIHYPSSEDVIKNNPSFKKASKDILEKLIDWEASLDAEPEVIVHLPAIKSKAGKIAEGWLIGIPYSGRHMMEMPRKDAVKVLVTALDKAKALGARIVGLGAYTSVVSRGGSDLQGKGIAVTSGNSYTIATAFDALIEGARLMGIDPAESTGCVIGATGSIGRVCAILLAEEIDKLVLVGNPEKEKTSLRRMEQLADEIYTRAFREILAYKGKVAKIKGIAKWLKGFLDRKRKDDPEVWNKLLTALENQGFSINGYIHENLAAKGKYSNPPVKITVNIKQALLQSDLIISASNSTNHLIGPGHLKPGSVICDVARPPDVSEAVLEQRKDVLVIEGGLVQYPDDICFGQNMGYEPGVNMACLSETMLLALEGTYRDFSIGLKIPVENVYYLRELAQRHGFKLATPWNKNGGVTPEVARMIKEAALKNENVEKIKTPKSS
notes: full-length fusion; N-terminal His6-tag, pET-28a(+), E. coli
With B1, in the data set “purified protein [1]”, the Km is recorded as 16.44 mM and the kcat worked out at 0.2672 s⁻¹. Besides, in the data set “purified protein [2]”, the Km stood at 50.61 mM and the kcat was determined as 1.171 s⁻¹.

As usually defined, the kcat is the number of substrate molecules converted per active site and unit of time at saturation.
